Data published in US20130217702A1 (Richter Gedeon Nyrt., priority 2010, published 2013).
Where two headings read alike, the source gives them in different places.

Key:
[1] = biological target: T1, recombinant human B1 receptors (Homo sapiens, UniProt P46663); test: Functional assay: antagonist potency by cytosolic calcium measurement (plate reader fluorimeter) in CHO-B1 cells, agonist LysDABK; assay type: cell-based
T1 construct: host or cells: CHO (CHO-B1)
T1 sequence (P46663 1-353): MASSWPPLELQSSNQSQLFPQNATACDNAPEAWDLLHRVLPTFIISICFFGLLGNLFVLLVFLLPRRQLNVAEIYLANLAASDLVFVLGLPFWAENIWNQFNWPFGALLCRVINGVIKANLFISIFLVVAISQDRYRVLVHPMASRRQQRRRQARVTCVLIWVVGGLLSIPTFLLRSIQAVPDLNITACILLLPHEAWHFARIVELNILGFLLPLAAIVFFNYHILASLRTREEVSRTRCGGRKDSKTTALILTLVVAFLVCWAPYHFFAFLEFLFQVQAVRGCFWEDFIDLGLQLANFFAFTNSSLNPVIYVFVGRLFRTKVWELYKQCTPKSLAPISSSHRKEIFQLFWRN
Procedure, shortened: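 IC50 is the concentration giving half-maximal inhibition of the LysDABK (EC80) calcium response, fitted from at least three experiments. CHO cells stably expressing human B1 were dye-loaded, exposed to compound for 20-25 min, then read by fluo-4 fluorescence (ΔF/F) at 37 °C.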

[2] = biological target: T2, human recombinant bradykinin B1 receptor (Homo sapiens, UniProt P46663); test: Human recombinant bradykinin B1 receptor competitive radioligand binding
T2 construct: host or cells: CHO cells, clone hB1-A5
T2 sequence (P46663 1-353): T1 sequence (P46663 1-353)
Procedure, shortened: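 Membranes from CHO cells expressing hB1 (20 μg protein/tube) incubated 15 min at 25° C. with [3,4-prolyl-3,4-^3H(N)]-[Des-Arg^10] Kallidin; nonspecific binding defined with 10 μM Lys-des-Arg^9-Bradykinin. Bound label collected by filtration and counted. IC50 from ≥7-point curves in triplicate; Ki by Cheng-Prusoff.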

[3] = CHO-B1 cells, inhibition of LysDABK (EC80)-evoked [Ca2+]i elevation, read-out: B1 func.
[4] = hB1 expressed in CHO cells, [3H]-[Des-Arg10] Kallidin radioligand, read-out: B1 binding
[5] = reference compounds, functional test, measured by the applicant, read-out: IC50
[6] = reference compounds, binding test, measured by the applicant, read-out: Ki

SMILES	IC50 [1, 3] [nM]	Ki [2, 4] [nM]	IC50 [1, 5] [nM]	Ki [2, 6] [nM]
COc1cc(C(=O)NC2(C(=O)NCc3ccc(-n4c(-c5noc(C)n5)c(F)c5cc(F)ccc54)cc3)CC2)on1 [Example 198, 3-Methoxy-isoxazole-5-carboxylic acid (1-{4-[3,5-difluoro-2-(5-methyl-[1,2,4]oxadiazol-3-yl)-indol-1-yl]-benzylcarbamoyl}-cyclopropyl)-amide]	< 20	< 20	–	–
Cc1nc(-c2c(F)c3cc(F)ccc3n2-c2ccc(CNC(=O)C3(NC(=O)C(F)(F)F)CC3)cc2)no1 [Example 199, 1-(2,2,2-Trifluoro-acetylamino)-cyclopropanecarboxylic acid 4-[3,5-difluoro-2-(5-methyl-[1,2,4]oxadiazol-3-yl)-indol-1-yl]-benzylamide]	< 20	< 20	–	–
COc1cc(C(=O)NC2(C(=O)NCc3ccc(-n4c(-c5noc(C)n5)c(C)c5cc(F)ccc54)cc3)CC2)on1 [Example 200, 3-Methoxy-isoxazole-5-carboxylic acid (1-{4-[5-fluoro-3-methyl-2-(5-methyl-[1,2,4]oxadiazol-3-yl)-indol-1-yl]-benzylcarbamoyl}-cyclopropyl)-amide]	< 20	< 20	–	–
COc1cc(C(=O)NC2(C(=O)NCc3ccc(-n4c(-c5noc(=O)n5C)c(Cl)c5ccccc54)cc3)CC2)on1 [Example 201, 3-Methoxy-isoxazole-5-carboxylic acid (1-{4-[3-chloro-2-(4-methyl-5-oxo-4,5-dihydro-[1,2,4]oxadiazol-3-yl)-indol-1-yl]-benzylcarbamoyl}-cyclopropyl)-amide]	< 20	< 20	–	–
CCCN1C(=O)[C@H](NC(=O)Nc2ccc(N3CCC(N4CCCCC4)CC3)cc2)N=C(c2ccc(C)cc2)c2ccccc21 [N-[4-(,4′-bipiperidin)-1′-ylphenyl]-N′-[(3R)-2,3-dihydro-5-(4-methyl-phenyl)-2-oxo-1-propyl-1H-1,4-benzodiazepin-3-yl]-urea, reference compound]	–	–	64.5	13.4
CN1CCN(C(=O)C2CCN(S(=O)(=O)c3ccc(NCC(c4ccccc4)c4ccccc4)c(C(=O)N4CCOCC4)c3)CC2)CC1 [NVP-SAA164, 4-{2-[(2,2-diphenyl-ethyl)-amino]-5-{4-[4-[(4-methyl-1-piperazinyl)-carbonyl]-1-piperidinyl]-sulfonyl}-benzoyl}-morpholine, reference compound]	–	–	33	8
